Assay results from ChEMBL document CHEMBL1150701, “A direct bioautographic tlc assay for compounds possessing antibacterial activity” (1987).
The source made the active and inactive calls. No cut-off for these calls is given here.

Experiments:
Bacillus subtilis [1] = test: Antibacterial activity against Bacillus subtilis ATCC 6633 after 48 hrs by silica gel plate-based INT-formazan method; assay type: functional
Escherichia coli [2] = test: Antibacterial activity against Escherichia coli ATCC 25922 after 48 hrs by silica gel plate-based INT-formazan method; assay type: functional
Bacillus subtilis [3] = test: Antibacterial activity against Bacillus subtilis ATCC 6633 at 5 ug after 48 hrs by silica gel plate-based INT-formazan method; assay type: functional, organism-based
Escherichia coli [4] = test: Antibacterial activity against Escherichia coli ATCC 25922 at 5 ug after 48 hrs by silica gel plate-based INT-formazan method; assay type: functional, organism-based

| SMILES | MIC (Bacillus subtilis [1]) [µg] | MIC (Escherichia coli [2]) [µg] | Activity (Bacillus subtilis [3]) | Activity (Escherichia coli [4]) |
| --- | --- | --- | --- | --- |
| O=C(N[C@H](CO)[C@H](O)c1ccc([N+](=O)[O-])cc1)C(Cl)Cl [CHLORAMPHENICOL] | 0.01 | 0.02 |  |  |
| CC[C@@]1(O)C(=O)OCc2c1cc1n(c2=O)Cc2cc3cc(O)ccc3nc2-1 |  |  | inactive | inactive |
| CC1=CC(=O)[C@@H](O)[C@]2(C)[C@H]3[C@@]4(O)OC[C@@]35[C@@H](C[C@@H]12)OC(=O)C[C@H]5[C@@H](C)[C@H]4O |  |  | inactive | inactive |
| CC1(C)S[C@@H]2[C@H](NC(=O)COc3ccccc3)C(=O)N2[C@H]1C(=O)O [PENICILLIN V] | 0.005 | >2 |  |  |
| CC(=O)O[C@H]1C(=O)O[C@@H]2C[C@H]3C(C)=CC(=O)[C@@H](O)[C@]3(C)[C@H]3[C@]4(O)OC[C@]32[C@@H]1[C@@H](C)[C@H]4O |  |  | inactive | inactive |
| O=C(O)/C=C/c1ccc(O)cc1 [COUMARIC ACID] | 2.5 | 5 |  |  |
| COc1cc([C@@H]2c3cc4c(c(O)c3C[C@H]3COC(=O)[C@@H]32)OCO4)cc(OC)c1O |  |  | Active | Active |
| CC[C@H](/C=C/[C@@H](C)[C@H]1CC[C@H]2[C@@H]3CC=C4C[C@@H](O)CC[C@]4(C)[C@H]3CC[C@]12C)C(C)C [STIGMASTEROL] | >20 | >20 |  |  |
| COc1cc([C@@H]2c3cc4c(cc3C[C@H]3COC(=O)[C@@H]32)OCO4)cc(OC)c1O |  |  | inactive | inactive |
| CC[C@@]1(O)C(=O)OCc2c1cc1n(c2=O)Cc2cc3c(OC)cccc3nc2-1 |  |  | inactive | inactive |
| O=c1c(O)c(-c2ccc(O)c(O)c2)oc2cc(O)cc(O)c12 [QUERCETIN] | 5 | 5 |  |  |
| COC(=O)[C@]12OC[C@]34[C@H]([C@@H](O)[C@@H]1O)[C@@]1(C)[C@H](O)C(=O)C=C(C)[C@@H]1C[C@H]3OC(=O)[C@H](OC(=O)CC(C)C)[C@@H]24 |  |  | inactive | inactive |
| CC[C@@]1(O)C(=O)OCc2c1cc1n(c2=O)Cc2cc3ccccc3nc2-1 |  |  | inactive | inactive |
| OC[C@H]1O[C@@](CO)(O[C@H]2O[C@H](CO)[C@@H](O)[C@H](O)[C@H]2O)[C@@H](O)[C@@H]1O [SUCROSE] | >20 | >20 |  |  |
| COc1cc([C@@H]2c3cc4c(c(O)c3C[C@H]3COC(=O)[C@@H]32)OCO4)cc(OC)c1OC |  |  | inactive | inactive |
| CCCCCCCCCCCCCCCC(=O)O [PALMITIC ACID] | >20 | >20 |  |  |
| CC1=CC(=O)[C@@H](O)[C@]2(C)[C@H]3[C@]4(O)OC[C@]35[C@H]([C@@H](C)[C@H]4O)[C@@H](O)C(=O)O[C@@H]5C[C@@H]12 |  |  | inactive | inactive |
| COc1cc([C@@H]2c3cc4c(cc3[C@H](O)[C@H]3COC(=O)[C@H]23)OCO4)cc(OC)c1OC |  |  | Active | Active |
| CC[C@H](CC[C@@H](C)[C@H]1CC[C@H]2[C@@H]3CC=C4C[C@@H](O)CC[C@]4(C)[C@H]3CC[C@]12C)C(C)C [BETA-SITOSTEROL] | >20 | >20 |  |  |
